Read-outs that look alike come from different tables or passages of the source.
Key:
Assay type in all cases: in vivo
[1] = tested on: Aulacophora femoralis; test: Pest control test of Aulacophora femoralis, cucumber leaf disk foliar spray
Experimental: Test Example 4 Pest Control Test of Aulacophora femoralis
A leaf disk having a diameter of 2.8 cm was cut out from a cucumber in pot culture, and a drug solution of the compound of the present invention at a predetermined concentration, which had been prepared so as to be a 50% acetone water (0.05% Tween20 available), was sprayed to the leaf disk. After an air drying process, adults were released thereto. Thereafter, the adults were left to stand in a thermostatic chamber (16 hours of light period-8 hours of dark period) at 25° C. […] Test in duplicate.
Mortality of adults(%)={number of dead adults/(number of survived adults+number of dead adults)}×100

[2] = tested on: Laodelphax striatella; test: Pest control test of Laodelphax striatella, foliar spray on rice seedling; details: Laodelphax striatellus, foliar
Experimental: Test Example 6 Pest Control Test of Laodelphax striatella
(§1) A drug solution of the compound of the present invention at a predetermined concentration, which had been prepared so as to be a 50% acetone water (0.05% Tween20 available), was foliar sprayed to a rice seedling in pot culture. After an air drying process, second instar larvae were released thereto. Thereafter, the larvae were left to stand in a thermostatic chamber (16 hours of light period-8 hours of dark period) at 25° C. […] Test in duplicate.
(§2) Mortality of larvae(%)={number of dead larvae/(number of survived larvae+number of dead larvae)}×100

[3] = tested on: Haemaphysalis longicornis; test: Pest control test of Haemaphysalis longicornis on the body surface of a dog; details: 72 h, read-out: mortality of mites
Experimental: Test Example 25 Pest Control Test of Haemaphysalis longicornis
Three petri dishes with a diameter of 9 cm and a height of 1 cm were adhered to the back of a dog. Compound 1-20 of the present invention was dissolved in ethanol so as to be 5.35 mg/mL, and the mixture was added dropwise to the body surface of the dog in the petri dish. The petri dish was sufficiently dried, and then thirty young mites of Haemaphysalis longicornis were released thereto. Each dog was housed in a cage and reared under conditions of 10 hours of light period and 14 hours of dark period at 23° C. Three days after the release, the petri dishes were detached therefrom to measure the numbers of living and dead mites and blood-sucking individuals of young mites, and the mortality of mites was calculated according to the following equation.
Mortality of mites(%)={number of dead mites/(number of survived mites+number of dead mites)}×100

[4] = tested on: Plutella xylostella; test: Plutella xylostella control test, cabbage leaf disk foliar spray; details: Plutella xylostella, foliar
Procedure, shortened: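 Cabbage leaf disks (5.0 cm) were sprayed with compound in 50% acetone water with 0.05% Tween20, air-dried, then infested with second instar larvae. Disks were held at 25° C under 16 h light/8 h dark, in duplicate. Percent larval mortality was calculated as dead over total larvae.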

[5] = tested on: Laodelphax striatella exhibiting drug resistance to fipronil; test: Foliar spray test, Laodelphax striatella exhibiting drug resistance to fipronil; details: Laodelphax striatellus, 144 h, read-out: mortality of larvae
Experimental: Test Example 15 Pest Control Test of Laodelphax striatella
as §1, with “After an air drying process, second instar larvae were released thereto.” left out
as §2
Further, for the origin of test pests, insects of Laodelphax striatella collected outdoors within the Kumamoto prefecture in 2006 were used.

[6] = tested on: housefly instar larvae; test: Pest control test of housefly instar larvae, treated bait; details: Musca domestica, read-out: mortality of larvae, chrysalises and adults
Experimental: Test Example 22 Pest Control Test of Housefly Instar Larvae
Compound 1-20 was blended with an extremely small amount of DMSO, and then the resulting mixture was dissolved in deionized water to adjust the drug solution. 10 ml of the drug solution adjusted to be 30 ppm was added to 10 g of powder in which wheat bran, MF feed (Oriental Yeast Co., Ltd.) and dry yeast had been mixed in a ratio of 25:5:1, and the mixture was mixed well to prepare a bait for housefly instar larvae. A 50 ml Falcon tube was slightly filled with the bait including the compound, and 20 eggs were released thereto. The mouth of the Falcon tube was covered with a mesh-topped lid, and the tube was allowed to stand at 25° C. Twenty days after the drug treatment, the numbers of instar larvae, chrysalises and adults were measured, and the mortality of larvae, chrysalises and adults was calculated by the following equation. The test was performed by repeating each treatment twice.
Mortality of larvae,chrysalises and adults(%)={number of dead larvae,chrysalises and adults/(number of survived larvae,chrysalises and adults+number of dead larvae,chrysalises and adults)}×100

[7] = tested on: Sogatella furcifera; test: Pest control test of Sogatella furcifera, soil irrigation treatment
Experimental: Test Example 11 Pest Control Test of Sogatella furcifera
(§3) A rice seedling in pot culture was subjected to soil irrigation treatment with a drug solution of the compound of the present invention at a predetermined concentration, which had been prepared so as to be a 10% acetone water. Three days after the treatment, ten second instar larvae of Sogatella furcifera were each released thereto. Thereafter, the larvae were left to stand in a thermostatic chamber (16 hours of light period-8 hours of dark period) at 25° C. […] The test was performed in duplicate.
as §2

[8] = tested on: susceptible populations of Laodelphax striatella; test: Soil irrigation test, susceptible populations of Laodelphax striatella; details: Rate 0.005 mg/pot
Experimental: as §3, with “Three days after the treatment, ten second instar larvae of Sogatella furcifera were each released thereto.” left out
as §2
Further, for comparison, the test against a populations of Laodelphax striatella which is highly susceptible to fipronil was performed by the same method as described above, and the results thereof are shown in Table 45.
In addition, for the origin of test pests, bugs collected within the Kumamoto prefecture in 2006 as the drug resistant Laodelphax striatella, and bugs successively reared indoors for a long time as the susceptible populations of Laodelphax striatella were used.

[9] = read-out: % Mortality, Test Example4 Aulacophora femoralis
[10] = read-out: % Mortality, Test Example1 Plutella xylostella

FC(F)(F)C(=S)/N=c1\ccccn1Cc1ccc(Cl)nc1 [Compound 1-20, N-[1-((6-chloropyridin-3-yl)methyl)pyridin-2(1H)-ylidene]-2,2,2-trifluoroethanethioamide]
mortality at 10 ppm ([1]; 72 h, read-out: mortality of adults): ≥ 80% | mortality at 1.25 ppm [1, 9]: 100% | mortality at 5 ppm [1, 9]: 100% | mortality at 1.25 ppm ([2]; 144 h, read-out: mortality of larvae): ≥ 80% | mortality at 1.25 ppm ([2]; read-out: % Mortality, Test Example6 Laodelphax striatella): 95% | mortality at 5350 µg/mL [3]: 100% | mortality at 100 ppm ([4]; 72 h, read-out: mortality of larvae): ≥ 80% | mortality at 5 ppm [4, 10]: 50% | mortality at 20 ppm [4, 10]: 100% | mortality at 100 ppm [4, 10]: 100% | mortality at 1.25 ppm [5]: ≥ 80% | mortality at 30 ppm [6]: 100% | % Mortality, Test Example 11 Sogatella furcifera ([7]; 0.005 mg/pot): 53% | % Mortality, Test Example 11 Sogatella furcifera ([7]; 0.01 mg/pot): 88% | Insecticidal effects against Laodelphax striatella (mortality of larvae %), Susceptible populations six days after the treatment [8]: 85%

From patent US20150005347A1, “NITROGEN-CONTAINING HETEROCYCLIC DERIVATIVE HAVING 2-IMINO GROUP AND PEST CONTROL AGENT INCLUDING THE SAME” (MEIJI SEIKA PHARMA CO., LTD., priority 2012, published 2015)
